From patent US10376520B2, “Methods for the treatment of cardiovascular disorders” (Galapagos NV, priority 2015, dated 2019)

Test system: RA patients
Test: LDL determination, Study 2 (RA patients, monotherapy)
Format: in vivo, human
Conditions: for [LDL] Mean CFB / [LDL] Median CFB: Study 2 12 weeks results
Description: Randomized, double-blind, placebo-controlled, multicenter, phase IIb dose finding study of Compound 1 (dosed as a [Compound 1:HCl:3H2O]) administered for 24 weeks as monotherapy to subjects with moderately to severely active rheumatoid arthritis who have an inadequate response to methotrexate alone
Double-blind, placebo-controlled, monotherapy study in subjects with moderately to severely active RA who have an inadequate response to methotrexate (MTX) (oral or parenteral).
280 subjects randomized to one of 3 doses of Compound 1 (dosed as a [Compound 1:HCl:3H2O]) or to placebo, given once daily (q.d.).
Twelve weeks of treatment with Compound 1 (dosed as a [Compound 1:HCl:3H2O]) at 50 mg, 100 mg, or 200 mg q.d.; or placebo. At Week 12, all subjects on placebo and the subjects on the 50 mg dose who have not achieved 20% improvement in swollen joint count (SJC66) and tender joint count (TJC68) will be assigned to 100 mg q.d. in a blinded fashion and will continue treatment until Week 24. Subjects in the other groups will maintain their randomized treatment until Week 24.
The determination of [LDL]-cholesterol is made using an automated method taking advantage of the selective micellary solubilization of [LDL]-cholesterol by a nonionic detergent and the interaction of a sugar compound and lipoproteins (VLDL and chylomicrons).
When a detergent is included in the enzymatic method for cholesterol determination (cholesterol esterase, cholesterol oxidase coupling reaction), the relative reactivities of cholesterol in the lipoprotein fractions increase in this order: [HDL]<chylomicrons <VLDL <[LDL]. In the presence of Mg^2+, a sugar compound markedly reduces the enzymatic reaction of the cholesterol measurement in VLDL and chylomicrons. The combination of a sugar compound with detergent enables the selective determination of [LDL]-cholesterol in serum. (Friedewald et al., 1972; Rifai et al., 1992)
Homogeneous enzymatic colorimetric assay.
In the presence of peroxidase, the hydrogen peroxide generated reacts with 4-aminoantipyrine and Sodium N-(2-hydroxy-3-sulfopropyl)-3,5-dimethoxyaniline (HSDA) to form a purple-blue dye.
The color intensity of this dye is directly proportional to the cholesterol concentration and is measured photometrically.
Human serum and plasma samples [LDL] determination was done on a Roche/Hitachi Cobas c 701/702 system which automatically calculate the analyte concentration of each sample. Samples containing precipitates are centrifuged before performing the assay.

[1] = 50 mg q.d. non responders switching to 100 mg q.d. at week 12, week 1
[2] = 50 mg q.d. non responders switching to 100 mg q.d. at week 12, week 2
[3] = 50 mg q.d. non responders switching to 100 mg q.d. at week 12, week 4
[4] = 50 mg q.d. non responders switching to 100 mg q.d. at week 12, week 8
[5] = 50 mg q.d. non responders switching to 100 mg q.d. at week 12, week 12

O=C(Nc1nc2cccc(-c3ccc(CN4CCS(=O)(=O)CC4)cc3)n2n1)C1CC1 [Compound 1, cyclopropanecarboxylic acid {5-[4-(1,1-dioxo-thiomorpholin-4-ylmethyl)-phenyl]-[1,2,4]triazolo[1,5-a]pyridin-2yl}-amide]
[LDL] Mean percentage CFB - 24 weeks results [1]: −0.30% | [LDL] Median percentage CFB - 24 weeks results [1]: 2.72% | [LDL] Mean percentage CFB - 24 weeks results [2]: 1.96% | [LDL] Median percentage CFB - 24 weeks results [2]: −0.66% | [LDL] Mean percentage CFB - 24 weeks results [3]: 6.21% | [LDL] Median percentage CFB - 24 weeks results [3]: 1.36% | [LDL] Mean percentage CFB - 24 weeks results [4]: 4.76% | [LDL] Median percentage CFB - 24 weeks results [4]: 2.69% | [LDL] Mean percentage CFB - 24 weeks results [5]: 6.13% | [LDL] Median percentage CFB - 24 weeks results [5]: 3.06% | [LDL] Median percentage CFB - 24 weeks results (50 mg q.d. non responders switching to 100 mg q.d. at week 12, week 16): 7.11% | [LDL] Median percentage CFB - 24 weeks results (50 mg q.d. non responders switching to 100 mg q.d. at week 12, week 20): −0.80% | [LDL] Median percentage CFB - 24 weeks results (50 mg q.d. non responders switching to 100 mg q.d. at week 12, week 24): 5.60% | [LDL] Mean percentage CFB - 24 weeks results (50 mg q.d. responders, week 1): −0.43% | [LDL] Median percentage CFB - 24 weeks results (50 mg q.d. responders, week 1): −0.29% | [LDL] Mean percentage CFB - 24 weeks results (50 mg q.d. responders, week 2): −2.56% | [LDL] Median percentage CFB - 24 weeks results (50 mg q.d. responders, week 2): −2.27% | [LDL] Mean percentage CFB - 24 weeks results (50 mg q.d. responders, week 4): 2.09% | [LDL] Median percentage CFB - 24 weeks results (50 mg q.d. responders, week 4): −1.14% | [LDL] Mean percentage CFB - 24 weeks results (50 mg q.d. responders, week 8): 6.10% | [LDL] Median percentage CFB - 24 weeks results (50 mg q.d. responders, week 8): 5.33% | [LDL] Mean percentage CFB - 24 weeks results (50 mg q.d. responders, week 12): 3.64% | [LDL] Median percentage CFB - 24 weeks results (50 mg q.d. responders, week 12): 0.69% | [LDL] Mean percentage CFB - 24 weeks results (50 mg q.d. responders, week 16): 7.12% | [LDL] Median percentage CFB - 24 weeks results (50 mg q.d. responders, week 16): 7.71% | [LDL] Mean percentage CFB - 24 weeks results (50 mg q.d. responders, week 20): 1.20% | [LDL] Median percentage CFB - 24 weeks results (50 mg q.d. responders, week 20): 3.91% | [LDL] Mean percentage CFB - 24 weeks results (50 mg q.d. responders, week 24): 1.97% | [LDL] Median percentage CFB - 24 weeks results (50 mg q.d. responders, week 24): −0.19% | [LDL] Mean percentage CFB - 12 weeks results (50 mg q.d., week 1): −0.40% | [LDL] Median percentage CFB - 12 weeks results (50 mg q.d., week 1): 0.18% | [LDL] Mean percentage CFB - 12 weeks results (50 mg q.d., week 2): −1.59% | [LDL] Median percentage CFB - 12 weeks results (50 mg q.d., week 2): −1.23% | [LDL] Mean percentage CFB - 12 weeks results (50 mg q.d., week 4): 2.97% | [LDL] Median percentage CFB - 12 weeks results (50 mg q.d., week 4): 0.76% | [LDL] Mean percentage CFB - 12 weeks results (50 mg q.d., week 8): 5.80% | [LDL] Median percentage CFB - 12 weeks results (50 mg q.d., week 8): 4.49% | [LDL] Mean percentage CFB - 12 weeks results (50 mg q.d., week 12): 4.19% | [LDL] Median percentage CFB - 12 weeks results (50 mg q.d., week 12): 1.14% | [LDL] Mean percentage CFB - 12 weeks results (100 mg q.d., week 1): 6.36% | [LDL] Mean percentage CFB - 24 weeks results (100 mg q.d., week 1): 6.36% | [LDL] Median percentage CFB - 12 weeks results (100 mg q.d., week 1): 1.97% | [LDL] Median percentage CFB - 24 weeks results (100 mg q.d., week 1): 1.97% | [LDL] Mean percentage CFB - 12 weeks results (100 mg q.d., week 2): 6.15% | [LDL] Mean percentage CFB - 24 weeks results (100 mg q.d., week 2): 6.15% | [LDL] Median percentage CFB - 24 weeks results (100 mg q.d., week 2): −1.82% | [LDL] Mean percentage CFB - 12 weeks results (100 mg q.d., week 4): 10.29% | [LDL] Mean percentage CFB - 24 weeks results (100 mg q.d., week 4): 10.29% | [LDL] Median percentage CFB - 12 weeks results (100 mg q.d., week 4): 5.08% | [LDL] Median percentage CFB - 24 weeks results (100 mg q.d., week 4): 5.08% | [LDL] Mean percentage CFB - 12 weeks results (100 mg q.d., week 8): 7.39% | [LDL] Mean percentage CFB - 24 weeks results (100 mg q.d., week 8): 7.39% | [LDL] Median percentage CFB - 12 weeks results (100 mg q.d., week 8): 5.34% | [LDL] Median percentage CFB - 24 weeks results (100 mg q.d., week 8): 5.34% | [LDL] Mean percentage CFB - 12 weeks results (100 mg q.d., week 12): 14.31% | [LDL] Mean percentage CFB - 24 weeks results (100 mg q.d., week 12): 14.31% | [LDL] Median percentage CFB - 12 weeks results (100 mg q.d., week 12): 5.78% | [LDL] Median percentage CFB - 24 weeks results (100 mg q.d., week 12): 5.78% | [LDL] Mean percentage CFB - 24 weeks results (100 mg q.d., week 16): 12.10% | [LDL] Median percentage CFB - 24 weeks results (100 mg q.d., week 16): 7.81% | [LDL] Mean percentage CFB - 24 weeks results (100 mg q.d., week 20): 12.84% | [LDL] Median percentage CFB - 24 weeks results (100 mg q.d., week 20): 7.74% | [LDL] Mean percentage CFB - 24 weeks results (100 mg q.d., week 24): 14.01% | [LDL] Median percentage CFB - 24 weeks results (100 mg q.d., week 24): 9.61% | [LDL] Mean percentage CFB - 12 weeks results (200 mg q.d., week 1): 8.06% | [LDL] Mean percentage CFB - 24 weeks results (200 mg q.d., week 1): 8.06% | [LDL] Median percentage CFB - 12 weeks results (200 mg q.d., week 1): 6.59% | [LDL] Median percentage CFB - 24 weeks results (200 mg q.d., week 1): 6.59% | [LDL] Mean percentage CFB - 12 weeks results (200 mg q.d., week 2): 8.39% | [LDL] Mean percentage CFB - 24 weeks results (200 mg q.d., week 2): 8.39% | [LDL] Median percentage CFB - 12 weeks results (200 mg q.d., week 2): 5.81% | [LDL] Median percentage CFB - 24 weeks results (200 mg q.d., week 2): 5.81% | [LDL] Mean percentage CFB - 12 weeks results (200 mg q.d., week 4): 9.99% | [LDL] Mean percentage CFB - 24 weeks results (200 mg q.d., week 4): 9.99% | [LDL] Median percentage CFB - 12 weeks results (200 mg q.d., week 4): 10.14% | [LDL] Median percentage CFB - 24 weeks results (200 mg q.d., week 4): 10.14% | [LDL] Mean percentage CFB - 12 weeks results (200 mg q.d., week 8): 9.80% | [LDL] Mean percentage CFB - 24 weeks results (200 mg q.d., week 8): 9.80% | [LDL] Median percentage CFB - 12 weeks results (200 mg q.d., week 8): 8.13% | [LDL] Median percentage CFB - 24 weeks results (200 mg q.d., week 8): 8.13% | [LDL] Mean percentage CFB - 12 weeks results (200 mg q.d., week 12): 16.80% | [LDL] Mean percentage CFB - 24 weeks results (200 mg q.d., week 12): 16.80% | [LDL] Median percentage CFB - 12 weeks results (200 mg q.d., week 12): 11.50% | [LDL] Median percentage CFB - 24 weeks results (200 mg q.d., week 12): 11.50% | [LDL] Mean percentage CFB - 24 weeks results (200 mg q.d., week 16): 12.24% | [LDL] Median percentage CFB - 24 weeks results (200 mg q.d., week 16): 9.19% | [LDL] Mean percentage CFB - 24 weeks results (200 mg q.d., week 20): 14.33% | [LDL] Median percentage CFB - 24 weeks results (200 mg q.d., week 20): 10.33% | [LDL] Median percentage CFB - 24 weeks results (200 mg q.d., week 24): 13.81% | [LDL] Mean CFB (50 mg q.d., week 1): 0.011 mmol/L | [LDL] Median CFB (50 mg q.d., week 1): 0.005 mmol/L | [LDL] Mean CFB (50 mg q.d., week 2): -0.057 mmol/L | [LDL] Median CFB (50 mg q.d., week 2): -0.040 mmol/L | [LDL] Mean CFB (50 mg q.d., week 4): 0.047 mmol/L | [LDL] Median CFB (50 mg q.d., week 4): 0.025 mmol/L | [LDL] Mean CFB (50 mg q.d., week 8): 0.142 mmol/L | [LDL] Median CFB (50 mg q.d., week 8): 0.130 mmol/L
